Conditions: pH 7

With “poly(ethylene glycol) chloroethyl sulfone [PEG chloroethyl sulfone]” the “stability in water, NMR after extraction” value was “stable”.
